Test results as given in article PMC9270327 (Communications Biology, 2022).
Structures can show the parent of a compound that is named as a salt. Where two headings read alike, the source gives them in different places.

System: SARS-CoV-2 Wuhan-Hu-1 D614G, Caco-2 cells
Type: cell-based
Settings: for IC50: Caco-2 cells; for SARS-CoV-2 infection, Mean (0 nM = 100): Fig. 6b, D614G isolate
[1] = in-cell ELISA 2 days post infection

## ace-Arg-Pro-Arg-kbt [Compound 2]
2 days post infection
  IC50: 17.1 µM
[1]
  IC50: 17.1 µM
Compound 32 nM
  SARS-CoV-2 infection, Mean (0 nM = 100): 95.739
Compound 160 nM
  SARS-CoV-2 infection, Mean (0 nM = 100): 98.0747
Compound 800 nM
  SARS-CoV-2 infection, Mean (0 nM = 100): 97.5395
Compound 4000 nM
  SARS-CoV-2 infection, Mean (0 nM = 100): 101.461
Compound 20000 nM
  SARS-CoV-2 infection, Mean (0 nM = 100): 23.4531
Compound 100000 nM
  SARS-CoV-2 infection, Mean (0 nM = 100): 0.121

## CN(C)C(=O)COC(=O)Cc1ccc(OC(=O)c2ccc(NC(=N)N)cc2)cc1 [CM, camostat mesylate, reference compound]
2 days post infection
  IC50: 26.7 µM
[1]
  IC50: 26.7 µM
Compound 32 nM
  SARS-CoV-2 infection, Mean (0 nM = 100): 93.4834
Compound 160 nM
  SARS-CoV-2 infection, Mean (0 nM = 100): 88.1889
Compound 800 nM
  SARS-CoV-2 infection, Mean (0 nM = 100): 88.3001
Compound 4000 nM
  SARS-CoV-2 infection, Mean (0 nM = 100): 93.3101
Compound 20000 nM
  SARS-CoV-2 infection, Mean (0 nM = 100): 68.3858
Compound 100000 nM
  SARS-CoV-2 infection, Mean (0 nM = 100): 1.574
